Results: the supplement of paper PMC10307832

Legend:
Assay in all cases: relative viability (nuclei count vs DMSO), 5 days (fraction); higher = more cells survive
MK-8033 + Luminespib = compound: Cn1cc(-c2cnc3ccc4ccc(CS(=O)(=O)NCc5ccccn5)cc4c(=O)c3c2)cn1 [MK-8033] + CCNC(=O)c1noc(-c2cc(C(C)C)c(O)cc2O)c1-c1ccc(CN2CCOCC2)cc1 [Luminespib] (partner 0.01 µM)
Procedure, shortened: (§1)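 Lung cancer cell lines, seeded in 1536-well plates, were treated the following day by pin tool with a single drug or with five library-drug doses (not always all listed) in √10 steps on top of a fixed anchor-drug dose. Cells were fixed and nuclei stained in one step after 5 days, and nuclei were counted. Relative viability is the nuclei count for treated wells divided by that for vehicle wells, reported as medians of duplicate plates.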

MK-8033 + Lapatinib = compound: Cn1cc(-c2cnc3ccc4ccc(CS(=O)(=O)NCc5ccccn5)cc4c(=O)c3c2)cn1 [MK-8033] + CS(=O)(=O)CCNCc1ccc(-c2ccc3ncnc(Nc4ccc(OCc5cccc(F)c5)c(Cl)c4)c3c2)o1 [Lapatinib] (partner 2 µM)
Procedure, shortened: as §1

RU-SKI 43 + Dasatinib = compound: CC[C@@H](C)CNCC(=O)N1CCC2=C([C@@H]1COC3=CC=CC(=C3)C)C=CS2 [RU-SKI 43] + Cc1nc(Nc2ncc(C(=O)Nc3c(C)cccc3Cl)s2)cc(N2CCN(CCO)CC2)n1 [Dasatinib] (partner 0.075 µM)
Procedure, shortened: as §1

Irinotecan + Pictilisib = compound: CCc1c2c(nc3ccc(OC(=O)N4CCC(N5CCCCC5)CC4)cc13)-c1cc3c(c(=O)n1C2)COC(=O)[C@]3(O)CC [Irinotecan] + CS(=O)(=O)N1CCN(Cc2cc3nc(-c4cccc5[nH]ncc45)nc(N4CCOCC4)c3s2)CC1 [Pictilisib] (partner 1 µM)
Procedure, shortened: as §1

Row | Cell Line | relative viability (MK-8033 + Luminespib; first compound 0.02 µM) | relative viability (MK-8033 + Luminespib; first compound 0.06325 µM) | relative viability (MK-8033 + Luminespib; first compound 0.2 µM) | relative viability (MK-8033 + Luminespib; first compound 0.6325 µM) | relative viability (MK-8033 + Luminespib; first compound 2 µM) | relative viability (MK-8033 + Lapatinib; first compound 0.02 µM) | relative viability (MK-8033 + Lapatinib; first compound 0.06325 µM) | relative viability (MK-8033 + Lapatinib; first compound 0.2 µM) | relative viability (MK-8033 + Lapatinib; first compound 0.6325 µM) | relative viability (MK-8033 + Lapatinib; first compound 2 µM) | relative viability (RU-SKI 43 + Dasatinib; first compound 0.1 µM) | relative viability (RU-SKI 43 + Dasatinib; first compound 0.3162 µM) | relative viability (RU-SKI 43 + Dasatinib; first compound 1 µM) | relative viability (RU-SKI 43 + Dasatinib; first compound 3.162 µM) | relative viability (RU-SKI 43 + Dasatinib; first compound 10 µM) | relative viability (Irinotecan + Pictilisib; first compound 0.6325 µM) | relative viability (Irinotecan + Pictilisib; first compound 2 µM) | relative viability (Irinotecan + Pictilisib; first compound 6.325 µM) | relative viability (Irinotecan + Pictilisib; first compound 20 µM)
1 | BEN | 0.382 | 0.419 | 0.331 | 0.295 | 0.455 | 0.695 | 0.679 | 0.649 | 0.738 | 0.75 | 0.333 | 0.253 | 0.474 | 0.272 | 0.316 | 0.508 | 0.461 | 0.253 | 0.349
2 | NCI-H23 | 0.245 | 0.216 |  | 0.204 | 0.198 | 1.27 | 0.818 | 0.919 | 1.35 | 1.09 | 0.691 | 0.809 | 0.797 | 0.868 | 0.515 | 0.397 | 0.442 | 0.256 | 0.258
3 | NCI-H1944 | 0.742 | 0.62 | 0.708 | 0.719 | 0.653 | 0.931 |  | 0.808 | 0.825 | 0.791 | 0.209 | 0.223 | 0.213 | 0.211 | 0.2 | 0.235 | 0.251 | 0.181 | 0.214
4 | NCI-H1437 | 1.11 | 1 | 1.05 | 1.08 | 1.04 | 0.736 | 0.773 | 0.793 | 0.834 | 0.749 | 0.541 | 0.452 | 0.472 | 0.452 | 0.377 | 0.366 | 0.322 | 0.184 | 0.115
5 | HARA | 0.675 | 0.621 | 0.681 | 1.03 | 0.557 | 0.594 | 0.632 | 0.763 | 0.69 | 0.828 | 0.288 | 0.317 | 0.303 | 0.34 | 0.156 | 0.189 | 0.104 | 0.161 | 0.0982
6 | LOU-NH91 | 0.318 | 0.335 | 0.349 | 0.379 | 0.326 | 0.785 |  | 0.735 | 0.772 | 0.745 | 0.553 | 0.604 | 0.624 | 0.581 | 0.554 | 0.517 | 0.518 | 0.409 | 0.35
7 | COR-L 105 | 0.552 | 0.79 | 0.774 | 0.616 | 0.677 | 0.286 | 0.354 | 0.32 | 0.361 | 0.346 | 0.323 | 0.259 | 0.304 | 0.36 | 0.335 | 0.309 | 0.515 | 0.411 | 0.231
8 | NCI-H838 | 0.248 | 0.292 | 0.335 | 0.296 | 0.273 | 0.902 | 0.844 | 0.925 | 0.927 | 0.911 | 0.296 | 0.213 | 0.303 | 0.247 | 0.327 | 0.472 | 0.403 | 0.279 | 0.214
